Where “and” joins values, the source holds several entries; their conditions need not be identical. Equal entries are not always repeated. Entries after “also recorded” stand apart in the source; their conditions may differ.
What was measured:
[1] = tested on: G2019S-LRRK2 expressing HEK293 cells; experiment: Mito DNADX mtDNA damage and mtDNA copy number in G2019S-LRRK2 overexpressing HEK293 cells; assay type: cell-based, human; settings: 10 nM-1 μM, 2 h
Description: Cells were plated at a density of 0.3 × 10^6 cells in a 6-well dish and treated at ~40–50% confluency. At the time of harvest, cells were collected and either protein collected or DNA extracted as described below.
The tool compound EB-42168 was discovered as part of a small molecule discovery program aimed at identifying LRRK2 kinase inhibitors that are selective for the pathogenic G2019S LRRK2 variant. […] MLi‐2 inhibits WT LRRK2 ~1000‐fold more than EB‐42168[20].
Cells were collected and the nuclei and mitochondria were isolated as previously described. DNA was extracted from LRRK2-WT and G2019S-LRRK2 cells, and wild-type and LRRK2^G2019S/G2019S KI cells using QuickGene DNA Whole Blood Kit L (Autogen, fk-dbl). PD patient LRRK2 G2019S and healthy subject control-derived LCL DNA was extracted using the QuickGene DNA Tissue Kit L (Autogen, fk-dtl), utilizing a semi-automated system (Autogen, QuickGene-610L). For the Autogen system, the pellet was resuspended in 2 ml of 1X PBS, and the standard manufacturer’s protocol was conducted as if the cell suspension was whole blood. DNA was eluted with EDTA-free buffer, and quality was assessed using a Spectradrop microvolume microplate (Molecular Devices). Double-stranded DNA was quantified using Quant-iT Picogreen dsDNA assay (Thermo Fisher) as previously described.
DNA damage in the mitochondrial genome was measured utilizing Mito DNADX, an assay that we recently developed and described, currently the most robust way of measuring damage in mtDNA[39],[82]. The Mito DNADX assay combines optimized polymerase chain reaction (PCR) parameters using a high-fidelity DNA polymerase and a fluorescent dye that binds to double-stranded DNA that permits the real-time quantification of DNA damage in distinct loci in a 96-well platform. The premise of the Mito DNADX assay involves amplification of a specific mitochondrial PCR fragment in which less PCR product will be amplified when mtDNA damage or lesions block the ability of the DNA polymerase to replicate. As such, mtDNA damage or mtDNA repair intermediates that slow down or impair DNA polymerase progression will be detected. Therefore, equal amounts of sample DNA amplified under identical conditions can be directly compared across conditions to determine the mtDNA lesion frequency. Mitochondrial DNA lesion frequency was performed as previously described. Briefly, 15 ng of DNA was used to amplify long or short amplicons of the mitochondrial genome (as determined by primer sets). The amount of amplification is directly proportional to the number of undamaged DNA templates. Average lesion frequency is calculated as described. Results are presented with the values in experimental samples relative to control samples (normalized to 1 lesion per 10 kb). PCR reactions included KAPA Long Range HotStart DNA Polymerase (KAPA Biosystems)[49]. Each biological DNA sample was analyzed in technical triplicate. Limitations of the Mito DNADX assay have been recently discussed.

[2] = tested on: LRRK2 in heterozygous G2019S LRRK2 PD patient-derived LCLs; experiment: LRRK2 pSer935 western immunoblot in heterozygous G2019S LRRK2 PD patient-derived LCLs; assay type: cell-based, human; settings: for decrease in LRRK2 pSer935 levels: heterozygous G2019S LRRK2 PD LCLs
Description: PD patient G2019S LRRK2 (n = 2) and healthy subject control (n = 2)-derived LCLs were obtained from the NINDS Coriell biorepository (ID numbers are ND00011, ND00264, ND01618, ND02559). […] LCLs were cultured at 37 °C, 5% CO2, in RPMI-1640 (Sigma-Aldrich, R8758), 15% heat-inactivated fetal bovine serum (VWR Seradigm, 97068-091) and 0.5% Penicillin/Streptomycin (Corning, 30-002-CI). […] All in vitro experiments were repeated at least three times from distinct samples.
For LRRK2-WT or G2019S-LRRK2, ~1.5 million cells were pelleted and resuspended in 75 μl of lysis buffer [(RIPA Buffer (Sigma-Aldrich, R0278-50ML), protease inhibitor cocktail (Sigma-Aldrich, P8340), and Halt phosphatase inhibitor cocktail (Thermo Fisher, 78420)]. For LCLs, five million cells were pelleted and resuspended in 100 µl of lysis buffer. For both types of cells lysates were centrifuged at 10,000 × g after a 10 min incubation on ice, and the supernatant was collected. Protein was quantified using the DC protein assay (Bio-Rad, 5000112). In total, 50 μg of protein was loaded for HEK293 LRRK2-WT or G2019S-LRRK2 cells. Due to the differing endogenous LRRK2 levels, 40 µg of ND02559, 60 µg of ND00264, or 100 µg of ND00011 and ND01618 of protein sample was loaded. Protein samples were incubated at 100 °C for 5 min with NuPAGE Sample loading dye (Thermo Fisher, NP0007) and dithiothreitol as reducing agent. After 4–20% SDS-PAGE, the blots were blocked in 5% w/v nonfat dry milk in 1X PBST (0.05% Tween 20). For our investigations, the following primary antibodies were used: mouse anti-LRRK2 N241a (Antibodies INC, 75-253, 1:5000 for HEK293 cells and 1:2000 for LCLs), rabbit anti-LRRK2 pS935 (Abcam, ab133450, 1:10,000 for HEK293 cells and 1:2000 for LCLs), mouse anti-β-actin (Novus, 8H10D10, 1:10,000), and rabbit anti-LRRK2 pS1292 (Abcam, ab203181, 1:500). The blots were then probed with fluorescent-labeled secondary antibodies, IRDye donkey anti-mouse and anti-rabbit at 1:10,000 (LI-COR, 926-32212, 926-68072), and scanned using an Odyssey Imaging scanner (LI-COR). Fluorescence intensities were quantified using ImageStudio Lite software (LI-COR), and the signal from the protein of interest was normalized to the fluorescence intensity of either LRRK2 or β-actin. Values were averaged from at least three technical replicates within a cell line, or two biological replicates (two healthy control lines and two PD LCLs). All blots were derived from the same experiment and processed in parallel.

| SMILES | mtDNA copy number [1] | mtDNA damage [1] | mtDNA damage ([1]; listed as EB-42618) | decrease in LRRK2 pSer935 levels ([2]; 10 nM, 2 h) | decrease in LRRK2 pSer935 levels ([2]; 100 nM, 2 h) [%] | decrease of LRRK2 pSer935 ([2]; human PD patient-derived cells heterozygous for G2019S LRRK2, concentration not given) | effect on LRRK2 pSer935 (in words) ([2]; G2019S LRRK2 PD LCLs, 10 and 100 nM, 2 h) |
| --- | --- | --- | --- | --- | --- | --- | --- |
| CC1=C(C(=O)Nc2ccc3[nH]nc(-c4ccnc(N5CCOCC5)c4)c3c2)C(C)(C)n2nnnc2N1C [EB-42168] | not different; also recorded: did not change | normalizing damage to WT-LRRK2 control levels (or lower) | abrogated | ~ 30% and 25% | ~40 | about 40% |  |
| C[C@@H]1CN(c2cc(-c3n[nH]c4ccc(OC5(C)CC5)cc34)ncn2)C[C@H](C)O1 [MLi-2, reference compound] | no effect; also recorded: unaltered | restored mtDNA damage to WT-LRRK2 control levels |  |  |  |  | almost completely; also recorded: almost complete |

From article PMC10907374, “G2019S selective LRRK2 kinase inhibitor abrogates mitochondrial DNA damage” (NPJ Parkinson's Disease, 2024)
